Source: US20080220497A1, “Modulation of protein functionalities” (priority 2003, published 2008)

Experiments:
[1] = molecular target: T1, doubly phosphorylated p38-alpha kinase (Homo sapiens, UniProt Q16539); assay: Thermal denaturation of doubly phosphorylated p38-alpha kinase; assay type: binding; conditions: for ΔTm (° C.) relative to doubly phosphorylated p38: 0.5 μM p38-alpha kinase, 20 μM small molecule
T1 construct: 6xHis ([…], seen only in the listing) (C); purchased Roche Applied Diagnostics
Procedure: (§1) Denaturation was monitored by measuring the absolute absorbance of the solutions at an appropriate wavelength (typically 230 nm and 240 nm) as a function of temperature. As the protein became denatured, additional UV absorbing functional groups became exposed causing an increase in absorbance at the melting temperature. […] The thermal data were collected using Agilent spectrophotometers and ChemStation UV/Vis Thermal Denaturation software.
The final concentration was 0.5 μM p38-alpha kinase and 20 μM small molecule. The final protein and buffer solution was mixed gently using a pipetter to minimize denaturing due to over aggressive mixing. The final solution was transferred to a 50 μL cuvette for analysis.
The protein and buffer solution was mixed gently using a pipetter to minimize denaturing due to over aggressive mixing. The final solution was transferred to a 50 μL cuvette for analysis.
(§2) A first derivative calculation with data smoothing was applied to the resulting data to report the point of inflection as the melting temperature.

[2] = molecular target: T2, unphosphorylated p38-alpha kinase (Homo sapiens, UniProt Q16539, DEL261-261); assay: Thermal denaturation of unphosphorylated p38-alpha kinase; assay type: binding; conditions: for ΔTm (° C.) relative to unphosphorylated apo p38: […] p38-alpha kinase, 15 μM small molecule
T2 construct: 48 (6×His-TEV tag, full length); 6×His-TEV tag (N); purchased Decode Genetics, Inc; host or cells: E. coli
Source text: as §1
The final protein and buffer solution was mixed gently using a pipetter to minimize denaturing due to over aggressive mixing. The final solution was transferred to a 50 μL cuvette for analysis.
(§3) The final solution was transferred to a 50 μL cuvette for analysis.
as §2

[3] = molecular target: T1, doubly phosphorylated p38-alpha kinase; assay: Fluorescence affinity assay, doubly phosphorylated p38-alpha kinase; assay type: binding; conditions: ~24 nM enzyme; 1.0 uM SKF-86002; read-out: FP IC50 P-p38-alpha
Source text: (§4) This fluorescence affinity assay is utilized in an affinity-based screen to identify small molecules which bind into switch control pockets of protein kinases. Binding of small molecule switch inhibitors displaces the switch control ligand phenylalanine of the DFG motif into an orientation which sterically blocks the ATP pocket. Such inhibitor-induced blockade of the ATP pocket is registered as an inhibition of binding of the fluoroprobe into the ATP pocket.
(§5) • 1. p38-alpha kinase • a. […] Polarstar Optima plate reader (BMG)
• 1. […] This dilution can be done automatically on a Tecan (or similar) robotic workstation or performed manually. • 3. Mix Solution A with the diluted compound solutions following Step 3 of Table 22. This step can be performed automatically on a Tecan (or similar) robotic workstation or performed manually. • 4. Incubate at 30° C. or room temp for 2 h, depending on protein stability. • 5. Read at emission wavelength 420 nm upon excitation at 340 nm. […]
(§6) A ratio greater than 1.0 indicates a preference for inhibiting the unphosphorylated form of p38-alpha kinase relative to the doubly phosphorylated form. A ratio less than 1.0 indicates a preference for inhibiting the doubly phosphorylated form of p38-alpha kinase relative to the unphosphorylated form.

[4] = molecular target: T2, unphosphorylated p38-alpha kinase; assay: Fluorescence affinity assay, unphosphorylated p38-alpha kinase; assay type: binding; conditions: for Ratio IC50s: doubly phosphorylated vs unphosphorylated p38-alpha, >1.0 = preference for unphosphorylated form; for IC50: ~24 nM enzyme, 1.0 uM SKF-86002, read-out: FP IC50 U-p38-alpha
Source text: as §4, §5
• 1. […] This dilution can be done automatically on a Tecan (or similar) robotic workstation or performed manually. • 3. Mix Solution A with the diluted compound solutions following Step 3 of Table 22. This step can be performed automatically on a Tecan (or similar) robotic workstation or performed manually. • 4. Incubate at 30° C. or room temp for 2 h, depending on protein stability. • 5. Read at emission wavelength 420 nm upon excitation at 340 nm.
The reaction was initiated by addition of the enzyme. […] By comparison of RFU (relative fluorescence units) values with that of a control (in the absence of small molecule modulators), the percentage of inhibition at each concentration of the small molecules was calculated. IC50 values for the small molecule modulators were calculated from the % inhibition values obtained at a range of concentrations of the small molecule modulators using Prism (available from GraphPad, Inc.). When time-dependent inhibition was assessed, the plate was read at multiple reaction times such as 0.5, 1, 2, 3, 4 and 6 hours. The IC50 values were calculated at each time point. An inhibition was assigned as time-dependent if the IC50 values decrease with the reaction time (more than two-fold in four hours).
as §6

[5] = system: Abl kinase; assay: Thermal denaturation of Abl kinase; assay type: binding, human; conditions: 1 μM Abl kinase, 20 μM small molecule
Procedure: as §1
5 μL of 40 μM Abl kinase was mixed with 195 μL of the small molecule/buffer solution. The final concentration was 1 μM Abl kinase and 20 μM small molecule. The final protein and buffer solution was mixed gently using a pipetter to minimize denaturing due to over aggressive mixing. The final solution was transferred to a 50 μL cuvette for analysis.
Test solutions containing only the Abl kinase were prepared as follows: 5 μL of 40 μM Abl kinase was mixed with 195 μL Buffer to give a concentration of 1 μM Abl kinase in Buffer. The protein and buffer solution was mixed gently using a pipetter to minimize denaturing due to over aggressive mixing. The final solution was transferred to a 50 μL cuvette for analysis.
as §2

[6] = molecular target: T3, V599E Braf kinase (Homo sapiens, UniProt P15056, V600E); assay: Thermal denaturation of oncogenic V599E Braf kinase; assay type: binding; conditions: 1.4 μM V599E Braf kinase, 20 μM small molecule; read-out: ΔTm (° C.) relative to unphosphorylated B-Raf(V599E)
T3 construct: 6×His-tag (N); made in house; host or cells: Sf9 insect cells (baculovirus)
Procedure: as §1, §3, §3, §2

T3 sequence (P15056 with tags, fused parts or gaps V600E): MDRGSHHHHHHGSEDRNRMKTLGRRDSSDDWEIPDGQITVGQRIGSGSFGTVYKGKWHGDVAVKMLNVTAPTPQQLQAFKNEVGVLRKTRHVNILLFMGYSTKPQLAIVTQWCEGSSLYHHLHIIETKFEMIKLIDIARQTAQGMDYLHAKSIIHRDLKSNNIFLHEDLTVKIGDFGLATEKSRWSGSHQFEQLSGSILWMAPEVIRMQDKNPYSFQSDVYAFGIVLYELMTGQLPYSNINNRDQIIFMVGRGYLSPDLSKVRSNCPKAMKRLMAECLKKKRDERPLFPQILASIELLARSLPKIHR
T1 sequence (Q16539 with tags, fused parts or gaps): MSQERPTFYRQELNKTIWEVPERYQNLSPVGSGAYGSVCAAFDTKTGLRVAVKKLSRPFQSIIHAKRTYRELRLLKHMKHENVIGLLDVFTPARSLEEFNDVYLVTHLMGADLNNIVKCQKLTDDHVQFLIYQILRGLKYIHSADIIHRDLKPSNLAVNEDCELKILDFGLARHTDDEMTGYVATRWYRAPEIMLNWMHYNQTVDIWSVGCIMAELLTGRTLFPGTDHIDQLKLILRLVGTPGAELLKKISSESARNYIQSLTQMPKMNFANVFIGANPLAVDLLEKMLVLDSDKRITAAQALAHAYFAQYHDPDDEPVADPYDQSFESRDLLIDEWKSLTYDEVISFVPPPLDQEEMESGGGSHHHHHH
T2 sequence (Q16539 with tags, fused parts or gaps DEL261-261): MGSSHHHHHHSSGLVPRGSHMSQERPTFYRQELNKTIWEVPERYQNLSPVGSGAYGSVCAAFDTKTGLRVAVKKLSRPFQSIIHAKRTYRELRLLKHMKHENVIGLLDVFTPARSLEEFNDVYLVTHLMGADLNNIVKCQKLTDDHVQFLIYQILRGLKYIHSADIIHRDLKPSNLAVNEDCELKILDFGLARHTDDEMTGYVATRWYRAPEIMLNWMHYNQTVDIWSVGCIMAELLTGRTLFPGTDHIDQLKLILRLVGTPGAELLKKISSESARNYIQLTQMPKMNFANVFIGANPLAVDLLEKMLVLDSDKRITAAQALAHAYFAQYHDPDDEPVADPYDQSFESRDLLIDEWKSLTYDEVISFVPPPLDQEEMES

Row | SMILES | ΔTm (° C.) relative to doubly phosphorylated p38 [1] [°C] | ΔTm (° C.) relative to unphosphorylated apo p38 [2] [°C] | IC50 [3] [nM] | Ratio IC50s [4] | IC50 [4] [nM] | further results
1 | CC1(O)CCN(C(=O)Cc2ccc(-n3nc(C(C)(C)C)cc3NC(=O)Nc3cccc(Cl)c3Cl)cc2)CC1 [Example 70] | 8.7 | 12.6 | 26 | 2.3 | 26 | –
2 | CC(C)(C)c1cc(NC(=O)Nc2cccc(Cl)c2Cl)n(-c2cc(CNC(=O)NS(C)(=O)=O)c3ccccc3c2)n1 [Example 86] | – | – | – | – | – | ΔTm (° C.) relative to unphosphorylated Abl [5]: 4.0 °C
3 | NC(=O)Cc1cccc(-n2nc(-c3cscn3)cc2NC(=O)Nc2cccc(Cl)c2Cl)c1 [Example 78] | 3.9 | 6.7 | 195 | 1.5 | 233 | –
4 | CC(C)(C)c1cc(NC(=O)Nc2cccc(Cl)c2Cl)n(-c2ccc3c(c2)CCC(=O)N3)n1 [Example 81] | – | – | – | – | – | ΔTm at 20 µM [6]: 17.3 °C
5 | CC(C)(C)c1cc(NC(=O)Nc2cccc(Cl)c2Cl)n(-c2ccc(CC(N)=O)cc2)n1 [Example 84] | – | – | – | – | – | ΔTm at 20 µM [6]: 12.5 °C
6 | Cc1ccc(NC(=O)Nc2cc(C(C)(C)C)nn2-c2ccc3c(c2)CCNC3)cc1Nc1ncccn1 [Example 94, 1-(3-tert-butyl-1-(1,2,3,4-tetrahydroisoquinolin-6-yl)-1H-pyrazol-5-yl)-3-(4-methyl-3-(pyrimidin-2-ylamino)phenyl)urea] | – | – | 19 | 1.9 | 10 | –
7 | CC(C)(C)c1cc(NC(=O)Nc2cccc(Cl)c2Cl)n(-c2ccc3c(c2)CCNC3=O)n1 [Example 82] | – | – | – | – | – | ΔTm at 20 µM [6]: 13.5 °C
8 | CC(C)(C)c1cc(NC(=O)Nc2cccc3ccccc23)n(-c2cccc(C(C)(C)O)c2)n1 [Example 83] | – | – | – | – | – | ΔTm at 20 µM [6]: 14.9 °C
9 | CC(C)(C)c1cc(NC(=O)Nc2ccc(Cl)cc2)n(-c2cccc(CO)c2)n1 [Example 85] | – | – | – | – | – | ΔTm at 20 µM [6]: 2.9 °C
10 | CC(C)(C)c1cc(NC(=O)Nc2cccc(Cl)c2Cl)n(-c2ccc(CC(=O)N3CCS(=O)(=O)CC3)cc2)n1 [Example 96] | – | – | 8 | 3.0 | 7 | –
11 | CC(=O)N1CCc2ccc(-n3nc(C(C)(C)C)cc3NC(=O)Nc3cccc(Cl)c3Cl)cc2C1 [Example 88] | – | – | – | – | – | ΔTm (° C.) relative to unphosphorylated Abl [5]: 1.2 °C
12 | CC(C)(C)c1cc(NC(=O)Nc2cccc(Oc3cccnc3)c2)n(-c2cccc(CC(N)=O)c2)n1 [Example 93, 1-(1-(3-(2-amino-2-oxoethyl)phenyl)-3-tert-butyl-1H-pyrazol-5-yl)-3-(3-(pyridin-3-yloxy)phenyl)urea] | – | – | 39 | 2.4 | 16 | –
13 | CC(C)(C)c1cc(NC(=O)Nc2cccc3ccccc23)n(-c2cccc(CO)c2)n1 [Example 71] | 9.6 | 10.9 | 19 | 1.1 | 17 | –
14 | O=C(Nc1cccc(Cl)c1Cl)Nc1cc(-c2ccccc2)nn1-c1cccc(CO)c1 [Example 63] | 5.0 | 9.4 | 85 | – | 28 | –
15 | CC(C)(C)c1cc(NC(=O)Nc2cccc(Cl)c2Cl)n(-c2cccc(CC(N)=O)c2)n1 [Example 69] | – | – | – | – | – | Thermal denaturation assay ΔTm ([1]; phosphorylated p38-alpha kinase): 9.1 °; Thermal denaturation assay ΔTm ([2]; unphosphorylated p38-alpha kinase): 13.10 °
16 | CC(C)(C)c1cc(NC(=O)Nc2cccc(Cl)c2Cl)n(-c2cccc(C(=N)N)c2)n1 [Example 90] | – | – | – | – | – | ΔTm (° C.) relative to unphosphorylated Abl [5]: 1.3 °C
17 | CC(C)(C)c1cc(NC(=O)Nc2ccc(Cl)cc2)n(-c2ccc(CO)cc2)n1 [Example 61] | 5.9 | 8.5 | 19 | 0.8 | 24 | –
18 | COc1ccc(-n2nc(C(C)(C)C)cc2NC(=O)Nc2cccc(Cl)c2Cl)cc1 [Example 91] | – | – | – | – | – | ΔTm (° C.) relative to unphosphorylated Abl [5]: 12.5 °C
19 | CC(C)(C)c1cc(NC(=O)Nc2cccc3ccccc23)n(-c2ccc(OCC(=O)O)cc2)n1 [Example 92] | – | – | 160 | 3.1 | 52 | –
20 | CC(C)(C)c1cc(NC(=O)Nc2cccc3ccccc23)n(-c2cccc(C(C)(C)O)c2)n1 [Example 75] | 5.6 | 8.2 | 119 | 0.7 | 165 | –
21 | CC(C)(C)c1cc(NC(=O)Nc2cccc(Cl)c2Cl)n(-c2ccc3c(c2)C(N)=NCC3)n1 [Example 89] | – | – | – | – | – | ΔTm (° C.) relative to unphosphorylated Abl [5]: 1.8 °C
22 | CC(C)(C)c1cc(NC(=O)Nc2cccc(Cl)c2Cl)n(-c2cc(CO)c3ccccc3c2)n1 [Example 87] | – | – | – | – | – | ΔTm (° C.) relative to unphosphorylated Abl [5]: 3.6 °C
23 | NC(=O)Cc1cccc(-n2nc(-c3ccccc3)cc2NC(=O)Nc2cccc(Cl)c2Cl)c1 [Example 77] | 5.3 | 8.0 | 57 | 1.1 | 25 | –
24 | CC(C)(C)c1cc(NC(=O)Nc2cccc3ccccc23)n(-c2ccc(C(O)C(F)(F)F)cc2)n1 (centres unmarked) [Example 73] | 5.9 | 8.9 | – | – | – | –
25 | CNC(=O)Cc1cccc(-n2nc(C(C)(C)C)cc2NC(=O)Nc2cccc(Cl)c2Cl)c1 [Example 79] | – | – | – | – | – | ΔTm at 20 µM [6]: 12 °C
26 | CC(C)(C)c1cc(NC(=O)Nc2cccc(Cl)c2Cl)n(-c2ccc(CC(N)=O)cc2)n1 [Example 76] | 9.4 | 13.1 | 26 | – | – | –
